System: 252836-082-R-J2-PDC tumor spheroids, viability
Assay: Anticancer human tumor 252836-082-R-J2-PDC patient-derived head and neck squamous cell carcinoma cell line growth inhibition [PI3K]
Conditions: spheroids with HUVEC and MSC; for IC50: curve of first compound; for viability, T/C: stronger effect = lower value
How it was run: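 Complex 3D spheroids (cancer cells + endothelial HUVEC + mesenchymal stem cells); drug pairs of targeted agent x inavolisib/alpelisib/duvelisib/copanlisib; half-log series from ~Cmax, max 10 microM if Cmax unknown; endpoint viability.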
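Note: spheroids exposed to agents for seven days before readout.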
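Throughout, for viability, T/C: percent of vehicle DMSO control viability so 100% = untreated growth.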

IC50 (second compound 0.00316 µM): > 10 µM
IC50 (second compound 0.01 µM): > 10 µM
IC50 (second compound 0.0316 µM): > 10 µM
IC50 (second compound 0.1 µM): < 0.0316 µM
IC50 (second compound 0.316 µM): < 0.0316 µM
IC50 (second compound 1 µM): < 0.0316 µM
SMILES: CNC(=O)c1ccc(N2C(=S)N(c3ccc(C#N)c(C(F)(F)F)c3)C(=O)C2(C)C)cc1F + COc1c(OCCCN2CCOCC2)ccc2c3n(c(=NC(=O)c4cnc(N)nc4)nc12)CCN3
viability, T/C (second compound 0.00316 µM, first compound 0.0316 µM): 97.9%
viability, T/C (second compound 0.00316 µM, first compound 0.1 µM): 85.8%
viability, T/C (second compound 0.00316 µM, first compound 0.316 µM): 87.3%
viability, T/C (second compound 0.00316 µM, first compound 1 µM): 96.5%
viability, T/C (second compound 0.00316 µM, first compound 3.16 µM): 96.2%
viability, T/C (second compound 0.00316 µM, first compound 10 µM): 77.7%
viability, T/C (second compound 0.01 µM, first compound 0.0316 µM): 73%
viability, T/C (second compound 0.01 µM, first compound 0.1 µM): 64.5%
viability, T/C (second compound 0.01 µM, first compound 0.316 µM): 79.5%
viability, T/C (second compound 0.01 µM, first compound 1 µM): 71.9%
viability, T/C (second compound 0.01 µM, first compound 3.16 µM): 76.1%
viability, T/C (second compound 0.01 µM, first compound 10 µM): 80%
viability, T/C (second compound 0.0316 µM, first compound 0.0316 µM): 60.7%
viability, T/C (second compound 0.0316 µM, first compound 0.1 µM): 60.1%
viability, T/C (second compound 0.0316 µM, first compound 0.316 µM): 49.9%
viability, T/C (second compound 0.0316 µM, first compound 1 µM): 60.9%
viability, T/C (second compound 0.0316 µM, first compound 3.16 µM): 62.8%
viability, T/C (second compound 0.0316 µM, first compound 10 µM): 54.3%
viability, T/C (second compound 0.1 µM, first compound 0.0316 µM): 36%
viability, T/C (second compound 0.1 µM, first compound 0.1 µM): 38%
viability, T/C (second compound 0.1 µM, first compound 0.316 µM): 36%
viability, T/C (second compound 0.1 µM, first compound 1 µM): 36.3%
viability, T/C (second compound 0.1 µM, first compound 3.16 µM): 33.5%
viability, T/C (second compound 0.1 µM, first compound 10 µM): 34.5%
viability, T/C (second compound 0.316 µM, first compound 0.0316 µM): 19%
viability, T/C (second compound 0.316 µM, first compound 0.1 µM): 17.2%
viability, T/C (second compound 0.316 µM, first compound 0.316 µM): 17.1%
viability, T/C (second compound 0.316 µM, first compound 1 µM): 17.3%
viability, T/C (second compound 0.316 µM, first compound 3.16 µM): 17.4%
viability, T/C (second compound 0.316 µM, first compound 10 µM): 13.4%
viability, T/C (second compound 1 µM, first compound 0.0316 µM): 4.5%
viability, T/C (second compound 1 µM, first compound 0.1 µM): 3.94%
viability, T/C (second compound 1 µM, first compound 0.316 µM): 5.87%
viability, T/C (second compound 1 µM, first compound 1 µM): 4.83%
viability, T/C (second compound 1 µM, first compound 3.16 µM): 4.62%
viability, T/C (second compound 1 µM, first compound 10 µM): 4.12%
